One block for each compound: values may come before it. The source made the active and inactive calls.
How the values were obtained:
[1] = biological target: Peroxisome proliferator-activated receptor gamma/Nuclear receptor coactivator 3 (Homo sapiens, UniProt P37231); assay type: functional;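 also: agonist potency for raising coactivator recruitment to the receptor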
[2] = biological target: Peroxisome proliferator-activated receptor gamma/Nuclear receptor coactivator 2 (Homo sapiens, UniProt P37231); assay type: functional;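 also: agonist potency for raising coactivator recruitment to the receptor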
[3] = biological target: Peroxisome proliferator-activated receptor gamma/Nuclear receptor coactivator 1 (Homo sapiens, UniProt P37231); assay type: functional;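 also: agonist potency as compounds enhance coactivator SRC-1 recruitment to PPARgamma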
[4] = biological target: Eukaryotic translation initiation factor 4E (Mus musculus, UniProt P63073); test: eIF4E–eIF4G protein interaction inhibitors, dose response, biochemical, TR-FRET (AID 855); assay type: functional;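 also: potency for disrupting eIF4E binding to eIF4GI seen as loss of FRET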
Cytochrome P450 2C9 = Cytochrome P450 2C9 (Homo sapiens, UniProt P11712)
Cytochrome P450 2C19 = Cytochrome P450 2C19 (Homo sapiens, UniProt P33261); test: Cytochrome panel assay with activity outcomes. Panel member name: p450-cyp2c19 Compounds with AC50 equal or less than 10 uM are considered active; assay type: functional; settings: read-out: AC50
[5] = biological target: T1, Mannose-6-phosphate isomerase (Homo sapiens, UniProt P34949); test: human PMI inhibitors, high substrate, primary screen, biochemical, fluorescence intensity, high mannose 6-phosphate (AID 1220)
T1 sequence (P34949 whole entry): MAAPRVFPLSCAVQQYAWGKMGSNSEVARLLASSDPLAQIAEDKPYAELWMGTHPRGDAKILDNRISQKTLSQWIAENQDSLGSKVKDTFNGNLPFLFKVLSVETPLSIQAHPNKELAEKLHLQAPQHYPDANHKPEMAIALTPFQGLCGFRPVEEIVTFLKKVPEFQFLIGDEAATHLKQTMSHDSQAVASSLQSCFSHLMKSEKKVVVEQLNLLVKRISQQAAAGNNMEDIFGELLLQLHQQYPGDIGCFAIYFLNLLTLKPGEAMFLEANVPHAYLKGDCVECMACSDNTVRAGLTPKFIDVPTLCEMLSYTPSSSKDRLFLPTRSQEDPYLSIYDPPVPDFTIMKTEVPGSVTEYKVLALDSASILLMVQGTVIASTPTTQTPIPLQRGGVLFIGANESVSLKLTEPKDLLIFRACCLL

Caspase-6 = biological target: T2, Caspase-6 (Homo sapiens, UniProt P55212); test: human caspase-6 inhibitors, dose response, biochemical, VEID-R110 fluorescence, cherry-pick (AID 720632)
T2 sequence (P55212 whole entry): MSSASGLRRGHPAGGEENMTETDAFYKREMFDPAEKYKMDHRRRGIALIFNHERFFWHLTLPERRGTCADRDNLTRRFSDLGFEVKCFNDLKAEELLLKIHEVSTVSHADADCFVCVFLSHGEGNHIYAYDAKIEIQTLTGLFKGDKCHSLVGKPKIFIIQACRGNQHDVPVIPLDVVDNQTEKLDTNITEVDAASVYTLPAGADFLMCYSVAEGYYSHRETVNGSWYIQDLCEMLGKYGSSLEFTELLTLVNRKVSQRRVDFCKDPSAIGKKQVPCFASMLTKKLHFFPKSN

BJ [6] = test: cytotoxicity toward BJ-TERT-LT-ST fibroblasts, dose response, cell-based, RAS-independent, luminescence (AID 1935); assay type: functional; settings: Homo sapiens;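 also: BJ fibroblasts immortalized with TERT plus LT and ST oncogenes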
[7] = cytotoxicity toward DRD oncogenic fibroblasts, dose response, cell-based, non-viral oncogenic, luminescence (AID 1934); assay type: functional; settings: Homo sapiens
BJ [8] = test: cytotoxicity toward BJ-TERT fibroblasts, dose response, cell-based, RAS-independent, luminescence (AID 1933); assay type: functional; settings: Homo sapiens
BJ [9] = test: cells; assay type: functional, cell-based; settings: Homo sapiens
[10] = biological target: T3, Kappa-type opioid receptor (Homo sapiens, UniProt P41145); assay type: functional
Beta-galactosidase = Beta-galactosidase (Escherichia coli, UniProt Q8VNN2); assay type: functional
[11] = HepG2 cell cytotoxicity, dose response, cytotoxicity control for Shn3 inhibitor project, CellTiter-Glo, cherry-picked (AID 624134); assay type: functional, cell-based
[12] = Shn3 3'UTR reporter inhibitors, dose response, cell-based, Clone20 osteoblasts, firefly luciferase, cherry-picked (AID 624132); assay type: functional;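 also: firefly luciferase luminescence from reporter carrying the Shn3 3'UTR in osteoblasts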
[13] = biological target: T3, Kappa-type opioid receptor; assay type: functional; remark: listed apart in the source
[14] = control 3'UTR Renilla luciferase suppression, dose response, counter-screen for Shn3 inhibitor project, cell-based, Clone20-Shn3RL, cherry-picked (AID 624133); assay type: functional
[15] = inhibitors of clade B AD8 Env fusion, dose response, cell-based, cherry-pick (AID 652062); assay type: functional;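 also: luciferase signal from cell-cell fusion driven by HIV-1 clade B AD8 Env; potency is for inhibitors of fusion seen as a drop in luminescence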
H9c2 = test: cells; assay type: functional, cell-based; settings: Rattus norvegicus, H9c2, Myocardium;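 also: confirmatory concentration-response retest of ultra-high-throughput screening hits for modulation of myocardial damage; cell death induced by hydrogen peroxide oxidative stress; compound pretreatment for 60 min then peroxide exposure for 2 h; potency is for protecting the cells against peroxide damage rather than for killing them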
[16] = CEM21 lymphoblast cell cytotoxicity, dose response, cytotoxicity control for viral fusion inhibitor project, CellTiter-Glo luminescence, cherry-picked (AID 652042); assay type: functional, cell-based;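 also: potency for signal decrease meaning cytotoxicity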
[17] = biological target: Luciferin 4-monooxygenase (Photinus pyralis, UniProt P08659); test: firefly luciferase enzyme inhibitors, dose response, biochemical, luminescence (AID 1891)
[18] = Luminescence Cell-Based Dose Confirmation HTS to Identify Inhibitors of Platelet Dense Granule Release. [Related pubchem assays: 1663 (Primary HTS), 1678 (Summary of Project)]; assay type: functional
[19] = biological target: T4, Short transient receptor potential channel 4 (Mus musculus, UniProt Q9QUQ5); test: mouse TRPC4 channel inhibitors, dose response, cell-based, HEK293 TRPC4/mu-opioid, Fluo-4 calcium (AID 434942); assay type: functional;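 also: potency of inhibitors blocking the TRPC4 calcium response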
T4 sequence (Q9QUQ5 whole entry): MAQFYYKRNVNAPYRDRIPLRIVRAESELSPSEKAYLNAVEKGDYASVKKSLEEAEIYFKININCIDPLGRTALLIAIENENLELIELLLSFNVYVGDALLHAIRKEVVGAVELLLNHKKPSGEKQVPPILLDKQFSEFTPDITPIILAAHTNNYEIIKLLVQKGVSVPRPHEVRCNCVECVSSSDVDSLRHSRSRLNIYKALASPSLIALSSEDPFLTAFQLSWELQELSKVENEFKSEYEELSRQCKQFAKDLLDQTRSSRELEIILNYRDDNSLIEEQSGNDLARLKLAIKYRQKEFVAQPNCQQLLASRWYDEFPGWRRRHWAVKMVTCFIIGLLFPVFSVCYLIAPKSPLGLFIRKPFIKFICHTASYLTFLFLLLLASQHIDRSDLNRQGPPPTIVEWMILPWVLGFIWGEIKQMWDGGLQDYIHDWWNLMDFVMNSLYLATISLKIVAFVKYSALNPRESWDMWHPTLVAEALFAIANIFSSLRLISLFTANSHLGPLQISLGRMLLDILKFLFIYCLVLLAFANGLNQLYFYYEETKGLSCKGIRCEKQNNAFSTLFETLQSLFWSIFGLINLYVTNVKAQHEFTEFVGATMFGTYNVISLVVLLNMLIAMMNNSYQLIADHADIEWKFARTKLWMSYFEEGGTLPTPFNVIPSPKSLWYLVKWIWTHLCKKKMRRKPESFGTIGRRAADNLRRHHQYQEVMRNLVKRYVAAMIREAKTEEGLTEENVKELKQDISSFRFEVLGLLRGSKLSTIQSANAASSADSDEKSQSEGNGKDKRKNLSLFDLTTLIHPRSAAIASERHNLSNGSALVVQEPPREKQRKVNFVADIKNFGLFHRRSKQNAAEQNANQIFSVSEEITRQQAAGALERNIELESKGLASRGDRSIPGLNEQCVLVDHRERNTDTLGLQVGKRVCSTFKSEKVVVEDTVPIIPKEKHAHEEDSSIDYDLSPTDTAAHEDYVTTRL

Sequence of Peroxisome proliferator-activated receptor gamma/Nuclear receptor coactivator 3 (P37231 whole entry): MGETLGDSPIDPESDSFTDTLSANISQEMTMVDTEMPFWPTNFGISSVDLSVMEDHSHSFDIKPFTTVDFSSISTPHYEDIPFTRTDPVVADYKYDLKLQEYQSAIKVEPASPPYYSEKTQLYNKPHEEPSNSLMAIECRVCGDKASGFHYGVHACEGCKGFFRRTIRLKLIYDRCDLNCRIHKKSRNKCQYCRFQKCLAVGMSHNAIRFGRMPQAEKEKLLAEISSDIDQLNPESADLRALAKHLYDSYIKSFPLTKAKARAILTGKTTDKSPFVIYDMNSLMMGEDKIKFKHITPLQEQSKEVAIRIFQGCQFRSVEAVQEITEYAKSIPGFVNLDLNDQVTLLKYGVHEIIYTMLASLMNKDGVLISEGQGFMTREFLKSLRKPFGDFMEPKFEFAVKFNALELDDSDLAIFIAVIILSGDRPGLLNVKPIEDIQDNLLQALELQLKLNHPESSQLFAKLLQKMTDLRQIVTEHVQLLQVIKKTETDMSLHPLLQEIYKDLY
Sequence of Peroxisome proliferator-activated receptor gamma/Nuclear receptor coactivator 3 (Q9Y6Q9 whole entry, further chain): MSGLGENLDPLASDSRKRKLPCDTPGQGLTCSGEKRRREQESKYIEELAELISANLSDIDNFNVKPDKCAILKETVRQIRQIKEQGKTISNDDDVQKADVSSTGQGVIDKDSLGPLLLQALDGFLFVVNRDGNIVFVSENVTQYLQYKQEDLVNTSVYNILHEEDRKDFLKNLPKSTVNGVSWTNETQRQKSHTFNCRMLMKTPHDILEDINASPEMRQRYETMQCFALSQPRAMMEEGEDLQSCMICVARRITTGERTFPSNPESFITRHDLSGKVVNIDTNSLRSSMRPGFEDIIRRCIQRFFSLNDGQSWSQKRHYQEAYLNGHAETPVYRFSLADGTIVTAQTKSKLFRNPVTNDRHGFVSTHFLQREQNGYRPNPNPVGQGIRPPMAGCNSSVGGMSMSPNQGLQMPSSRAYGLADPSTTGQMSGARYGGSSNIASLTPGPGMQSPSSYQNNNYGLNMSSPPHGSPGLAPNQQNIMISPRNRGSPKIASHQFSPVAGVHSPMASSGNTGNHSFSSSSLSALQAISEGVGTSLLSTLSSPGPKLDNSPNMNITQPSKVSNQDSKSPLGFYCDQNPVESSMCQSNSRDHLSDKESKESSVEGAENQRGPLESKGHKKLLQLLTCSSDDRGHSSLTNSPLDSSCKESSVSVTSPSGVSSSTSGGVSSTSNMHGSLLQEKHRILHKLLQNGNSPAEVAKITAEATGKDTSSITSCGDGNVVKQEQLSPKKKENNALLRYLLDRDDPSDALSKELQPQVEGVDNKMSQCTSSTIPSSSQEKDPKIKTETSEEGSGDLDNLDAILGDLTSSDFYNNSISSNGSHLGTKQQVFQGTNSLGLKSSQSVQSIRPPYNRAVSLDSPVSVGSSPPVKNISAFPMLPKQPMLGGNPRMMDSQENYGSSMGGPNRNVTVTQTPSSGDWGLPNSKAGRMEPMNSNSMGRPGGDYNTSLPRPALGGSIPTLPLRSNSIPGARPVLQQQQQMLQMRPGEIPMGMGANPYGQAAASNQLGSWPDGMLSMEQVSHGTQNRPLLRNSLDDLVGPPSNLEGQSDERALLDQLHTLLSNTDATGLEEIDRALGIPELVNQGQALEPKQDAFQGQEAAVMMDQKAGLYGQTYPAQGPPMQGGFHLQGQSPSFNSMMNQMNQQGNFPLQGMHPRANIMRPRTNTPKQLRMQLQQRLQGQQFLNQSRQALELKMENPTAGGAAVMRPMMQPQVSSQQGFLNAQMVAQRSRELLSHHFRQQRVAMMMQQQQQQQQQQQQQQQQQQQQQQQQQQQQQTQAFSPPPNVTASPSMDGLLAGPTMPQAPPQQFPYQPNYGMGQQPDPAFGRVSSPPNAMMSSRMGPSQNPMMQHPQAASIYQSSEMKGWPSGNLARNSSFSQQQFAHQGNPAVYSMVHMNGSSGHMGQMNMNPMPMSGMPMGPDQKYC
Sequence of Peroxisome proliferator-activated receptor gamma/Nuclear receptor coactivator 2 (P37231 whole entry): as the sequence (P37231 whole entry) above
Sequence of Peroxisome proliferator-activated receptor gamma/Nuclear receptor coactivator 2 (Q15596 whole entry, further chain): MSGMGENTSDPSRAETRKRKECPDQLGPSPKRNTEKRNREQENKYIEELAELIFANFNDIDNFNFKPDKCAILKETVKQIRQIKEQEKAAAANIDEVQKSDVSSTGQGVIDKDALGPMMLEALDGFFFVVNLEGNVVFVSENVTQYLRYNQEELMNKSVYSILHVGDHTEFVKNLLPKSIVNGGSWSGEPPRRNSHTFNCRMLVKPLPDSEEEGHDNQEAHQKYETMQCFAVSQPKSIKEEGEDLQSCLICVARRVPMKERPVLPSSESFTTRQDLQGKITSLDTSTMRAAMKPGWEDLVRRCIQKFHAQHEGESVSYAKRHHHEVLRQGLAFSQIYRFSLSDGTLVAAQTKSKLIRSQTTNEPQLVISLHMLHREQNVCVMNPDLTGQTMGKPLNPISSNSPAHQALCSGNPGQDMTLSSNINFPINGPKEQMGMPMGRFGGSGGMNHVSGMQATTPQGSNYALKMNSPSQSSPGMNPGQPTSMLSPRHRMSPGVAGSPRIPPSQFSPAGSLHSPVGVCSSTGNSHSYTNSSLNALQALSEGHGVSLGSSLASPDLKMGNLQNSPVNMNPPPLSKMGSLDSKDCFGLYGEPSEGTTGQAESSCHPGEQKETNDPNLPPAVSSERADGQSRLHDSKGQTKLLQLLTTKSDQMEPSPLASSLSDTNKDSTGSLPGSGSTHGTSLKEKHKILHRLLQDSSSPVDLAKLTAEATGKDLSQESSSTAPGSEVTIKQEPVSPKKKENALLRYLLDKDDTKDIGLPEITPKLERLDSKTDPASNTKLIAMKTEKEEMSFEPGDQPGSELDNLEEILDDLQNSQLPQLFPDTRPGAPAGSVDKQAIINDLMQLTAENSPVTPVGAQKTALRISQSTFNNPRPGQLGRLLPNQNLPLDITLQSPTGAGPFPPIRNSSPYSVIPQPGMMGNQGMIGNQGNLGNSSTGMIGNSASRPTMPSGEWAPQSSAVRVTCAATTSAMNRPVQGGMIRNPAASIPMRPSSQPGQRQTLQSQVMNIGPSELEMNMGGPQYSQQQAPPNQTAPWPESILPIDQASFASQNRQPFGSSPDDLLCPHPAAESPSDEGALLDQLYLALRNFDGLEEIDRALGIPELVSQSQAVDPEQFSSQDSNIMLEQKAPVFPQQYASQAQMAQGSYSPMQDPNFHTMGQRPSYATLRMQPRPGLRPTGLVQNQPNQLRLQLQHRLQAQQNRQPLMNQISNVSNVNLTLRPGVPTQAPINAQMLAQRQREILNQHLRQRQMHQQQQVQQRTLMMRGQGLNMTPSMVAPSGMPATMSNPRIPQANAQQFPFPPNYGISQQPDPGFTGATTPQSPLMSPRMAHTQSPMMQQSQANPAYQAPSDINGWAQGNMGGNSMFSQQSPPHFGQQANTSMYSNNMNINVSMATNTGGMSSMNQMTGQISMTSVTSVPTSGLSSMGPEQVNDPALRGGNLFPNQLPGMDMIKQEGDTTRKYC
Sequence of Eukaryotic translation initiation factor 4E (P63073 whole entry): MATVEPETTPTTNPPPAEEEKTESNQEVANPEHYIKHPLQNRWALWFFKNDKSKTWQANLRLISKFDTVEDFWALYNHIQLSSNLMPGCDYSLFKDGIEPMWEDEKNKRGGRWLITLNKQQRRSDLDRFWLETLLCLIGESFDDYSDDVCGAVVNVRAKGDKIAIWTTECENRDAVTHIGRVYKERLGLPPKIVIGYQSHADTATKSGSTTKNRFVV
T3 sequence (P41145 whole entry): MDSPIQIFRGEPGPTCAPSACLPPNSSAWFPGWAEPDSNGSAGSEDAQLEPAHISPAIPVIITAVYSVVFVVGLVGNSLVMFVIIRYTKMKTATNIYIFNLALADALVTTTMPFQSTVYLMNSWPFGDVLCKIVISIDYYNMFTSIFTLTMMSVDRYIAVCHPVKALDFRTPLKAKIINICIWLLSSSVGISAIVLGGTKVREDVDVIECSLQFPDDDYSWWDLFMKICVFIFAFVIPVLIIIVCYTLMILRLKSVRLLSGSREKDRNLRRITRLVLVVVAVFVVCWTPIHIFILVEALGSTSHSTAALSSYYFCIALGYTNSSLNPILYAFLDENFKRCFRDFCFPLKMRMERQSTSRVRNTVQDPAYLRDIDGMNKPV
Sequence of Cytochrome P450 2C9 (P11712 whole entry): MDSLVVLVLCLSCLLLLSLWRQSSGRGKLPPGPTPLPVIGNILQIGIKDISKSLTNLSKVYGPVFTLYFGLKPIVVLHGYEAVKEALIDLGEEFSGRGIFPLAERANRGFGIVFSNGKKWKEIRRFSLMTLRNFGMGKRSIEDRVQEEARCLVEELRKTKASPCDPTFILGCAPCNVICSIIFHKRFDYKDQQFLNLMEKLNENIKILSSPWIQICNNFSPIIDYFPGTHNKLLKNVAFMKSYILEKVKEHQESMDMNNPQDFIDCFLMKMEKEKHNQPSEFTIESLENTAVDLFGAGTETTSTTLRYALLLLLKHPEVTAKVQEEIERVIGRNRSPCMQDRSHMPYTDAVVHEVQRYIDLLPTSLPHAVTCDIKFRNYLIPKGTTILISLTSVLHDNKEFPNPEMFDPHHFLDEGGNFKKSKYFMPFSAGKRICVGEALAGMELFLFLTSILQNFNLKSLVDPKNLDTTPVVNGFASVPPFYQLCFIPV

- IC50 [5]: > 50 µM (not active)
- AC50 (Caspase-6): 14.2 µM (active)
Structure (SMILES): Cc1ccc2cc(N)ccc2n1

- EC50 [1]: 11.3 µM (not active)
- EC50 [2]: 6.82 µM (active)
- EC50 [3]: 10 µM (not active)
Structure (SMILES): O=C(Cc1sc(-c2ccccc2Cl)nc1-c1ccccc1)Nc1ccccc1

- IC50 [5]: > 50 µM (not active)
Structure (SMILES): CN(C)/C=C1\Oc2ccc3ccccc3c2C1=O

- IC50 [5]: > 50 µM (not active)
Structure (SMILES): CN(CC(=O)Nc1ccc(N2CCOCC2)cc1)Cc1c(O)ccc2ccccc12

- EC50 [19]: 1.33 µM (active)
Structure (SMILES): CC1CCCN(c2c3c(nc4ccccc24)CCCC3)C1 (stereo unspecified)

The remaining lines, values behind:

Structure (SMILES): Clc1cccc2sc(N3CCN(c4ccccc4)CC3)nc12
- EC50 [1]: > 79.4 µM (not active)
- EC50 [2]: > 79.4 µM (not active)
- EC50 [3]: > 79.4 µM (not active)

Structure (SMILES): CC(C)CC(=O)N1CCC(N2CCN(c3ccccc3)CC2)CC1
- IC50 [4]: > 64 µM (inactive)
- AC50 (Cytochrome P450 2C9): 14.1 µM (inconclusive)
- AC50 (Cytochrome P450 2C19): 15.8 µM (inconclusive)

Structure (SMILES): O=C(c1cccc([N+](=O)[O-])c1)c1ccccn1
- EC50 (BJ [6]): > 150 µM (not active)
- EC50 [7]: > 150 µM (not active)
- EC50 (BJ [8]): > 150 µM (not active)
- EC50 (BJ [9]): > 150 µM (not active)

Structure (SMILES): O=C(NNC(=O)C(c1ccccc1)c1ccccc1)c1ccccn1
- IC50 [10]: 17.5 µM (active)
- EC50 (Beta-galactosidase): > 31.5 µM (inactive)
- AC50 [11]: 5.11 µM (active)
- AC50 [12]: 2.87 µM (active)
- IC50 [13]: > 32 µM
- AC50 [14]: 2.52 µM (active)
- AC50 [15]: 0.585 µM (active)
- IC50 (H9c2): > 79 µM (inactive)
- AC50 [16]: 3.53 µM (active)

Structure (SMILES): CC1(C)Cc2c(sc3nc(NCCN4CCOCC4)n4ncnc4c23)CO1
- IC50 [4]: > 64 µM (inactive)
- EC50 [17]: > 112 µM (not active)
- EC50 [18]: 10.8 µM (active)

Structure (SMILES): Cc1ccccc1N(C(=O)c1snc(C(N)=O)c1N)C(C(=O)NC1CCCC1)c1ccco1 (stereo unspecified)
- EC50 [19]: 2.99 µM (active)
